Common to all, as to assay type: biochemical
Test [1] deals with EGFR (Homo sapiens, UniProt P00533). As to the kind of experiment: Inhibition of a panel of kinases, in vitro HotSpot kinase assay: EGFR. The procedure:
(§1) The degree of inhibition of a panel of kinases is determined using the in vitro HotSpot kinase assay (purified enzymes, ^33P-ATP, an appropriate substrate and 1 μM ATP).

For test [2], the target named is T1, BTK-WT (Homo sapiens, UniProt Q06187).
T1 construct: purified from insect cells as a full-length construct containing an N-terminal 6X-His tag; His6 (N); made in house; host or cells: insect cells (baculovirus Sf21 in Method B)
The test is described as follows: Btk in vitro inhibitory activity (one of Method A TR-FRET, Method B electrophoretic mobility shift, Method C radiometric filter binding). The settings on record: read-out: IC50 BTK-WT.

In test [3] the target is T2, TEC (Homo sapiens, UniProt P42680).
T2 sequence (P42680 1-631): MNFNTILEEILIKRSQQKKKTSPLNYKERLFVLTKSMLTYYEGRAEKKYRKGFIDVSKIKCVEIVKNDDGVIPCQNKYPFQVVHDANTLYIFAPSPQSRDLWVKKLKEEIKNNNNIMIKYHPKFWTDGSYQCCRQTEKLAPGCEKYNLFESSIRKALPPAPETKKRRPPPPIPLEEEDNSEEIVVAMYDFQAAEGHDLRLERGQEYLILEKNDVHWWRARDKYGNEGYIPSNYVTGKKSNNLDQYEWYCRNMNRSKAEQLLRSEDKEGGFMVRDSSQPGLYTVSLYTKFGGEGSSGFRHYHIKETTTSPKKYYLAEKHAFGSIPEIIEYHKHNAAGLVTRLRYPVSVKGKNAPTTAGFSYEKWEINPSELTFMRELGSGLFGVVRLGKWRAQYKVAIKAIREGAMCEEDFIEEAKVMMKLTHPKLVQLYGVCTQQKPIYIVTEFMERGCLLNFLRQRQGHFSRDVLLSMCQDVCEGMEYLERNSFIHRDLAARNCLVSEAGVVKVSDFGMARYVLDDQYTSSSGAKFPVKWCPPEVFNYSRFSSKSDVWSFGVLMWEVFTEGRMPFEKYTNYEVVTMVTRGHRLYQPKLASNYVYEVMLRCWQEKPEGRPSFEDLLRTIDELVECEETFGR
The test is described as follows: Inhibition of a panel of kinases, in vitro HotSpot kinase assay: TEC. The protocol: as §1

The target in test [4] is SRC (Homo sapiens, UniProt P12931). As to the kind of experiment: Inhibition of a panel of kinases, in vitro HotSpot kinase assay: SRC. The protocol: as §1
Where [5] appears, read: Table 13, A compounds, 1 μM ATP.

Where two headings read alike, the source gives them in different places.

T1 sequence (Q06187 whole entry): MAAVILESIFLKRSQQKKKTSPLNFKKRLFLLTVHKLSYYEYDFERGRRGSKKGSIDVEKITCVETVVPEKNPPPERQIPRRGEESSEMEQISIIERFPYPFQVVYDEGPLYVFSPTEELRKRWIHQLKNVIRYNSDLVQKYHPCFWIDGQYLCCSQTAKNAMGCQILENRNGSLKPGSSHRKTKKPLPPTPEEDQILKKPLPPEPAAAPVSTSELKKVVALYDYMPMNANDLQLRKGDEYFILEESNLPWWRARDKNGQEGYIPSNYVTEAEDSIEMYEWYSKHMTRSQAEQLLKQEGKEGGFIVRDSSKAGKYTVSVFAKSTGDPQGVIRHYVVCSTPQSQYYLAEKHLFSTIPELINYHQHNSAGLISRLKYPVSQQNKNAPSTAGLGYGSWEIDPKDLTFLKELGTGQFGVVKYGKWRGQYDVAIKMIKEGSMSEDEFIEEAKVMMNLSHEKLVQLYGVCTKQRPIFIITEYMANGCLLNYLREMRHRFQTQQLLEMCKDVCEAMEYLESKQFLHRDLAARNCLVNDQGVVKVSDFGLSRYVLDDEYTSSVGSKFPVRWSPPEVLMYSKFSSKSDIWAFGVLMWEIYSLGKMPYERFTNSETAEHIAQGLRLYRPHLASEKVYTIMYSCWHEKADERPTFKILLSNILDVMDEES
Sequence of EGFR (P00533 25-1210): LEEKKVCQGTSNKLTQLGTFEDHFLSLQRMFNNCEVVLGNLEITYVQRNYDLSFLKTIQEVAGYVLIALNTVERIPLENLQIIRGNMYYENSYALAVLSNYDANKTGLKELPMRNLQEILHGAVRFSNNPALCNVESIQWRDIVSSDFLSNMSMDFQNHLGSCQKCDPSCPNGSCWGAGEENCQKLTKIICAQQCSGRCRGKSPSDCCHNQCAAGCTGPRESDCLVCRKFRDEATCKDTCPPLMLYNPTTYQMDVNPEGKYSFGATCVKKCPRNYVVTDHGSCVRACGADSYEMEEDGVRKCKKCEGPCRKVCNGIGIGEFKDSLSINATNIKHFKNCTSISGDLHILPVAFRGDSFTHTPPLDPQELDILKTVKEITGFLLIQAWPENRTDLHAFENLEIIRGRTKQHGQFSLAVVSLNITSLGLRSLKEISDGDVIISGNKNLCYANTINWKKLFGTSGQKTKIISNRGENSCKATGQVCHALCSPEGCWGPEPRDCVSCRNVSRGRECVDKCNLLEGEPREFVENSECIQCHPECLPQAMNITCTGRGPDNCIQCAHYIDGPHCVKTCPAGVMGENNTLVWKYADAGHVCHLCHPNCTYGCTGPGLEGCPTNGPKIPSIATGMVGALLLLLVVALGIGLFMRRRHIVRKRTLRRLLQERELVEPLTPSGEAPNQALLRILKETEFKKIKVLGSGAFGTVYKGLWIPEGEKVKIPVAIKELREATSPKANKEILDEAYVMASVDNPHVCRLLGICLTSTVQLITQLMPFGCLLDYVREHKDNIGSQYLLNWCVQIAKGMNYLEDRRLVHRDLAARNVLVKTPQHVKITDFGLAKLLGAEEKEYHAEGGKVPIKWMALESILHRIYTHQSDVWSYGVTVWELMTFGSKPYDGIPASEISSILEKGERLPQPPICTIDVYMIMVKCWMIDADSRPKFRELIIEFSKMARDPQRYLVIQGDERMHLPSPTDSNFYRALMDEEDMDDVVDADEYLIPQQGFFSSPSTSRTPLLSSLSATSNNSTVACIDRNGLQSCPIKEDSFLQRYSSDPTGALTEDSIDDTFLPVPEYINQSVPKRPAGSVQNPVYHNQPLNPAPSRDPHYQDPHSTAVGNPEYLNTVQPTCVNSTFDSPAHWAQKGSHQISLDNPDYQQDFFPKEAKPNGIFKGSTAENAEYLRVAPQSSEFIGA
Sequence of SRC (P12931 whole entry): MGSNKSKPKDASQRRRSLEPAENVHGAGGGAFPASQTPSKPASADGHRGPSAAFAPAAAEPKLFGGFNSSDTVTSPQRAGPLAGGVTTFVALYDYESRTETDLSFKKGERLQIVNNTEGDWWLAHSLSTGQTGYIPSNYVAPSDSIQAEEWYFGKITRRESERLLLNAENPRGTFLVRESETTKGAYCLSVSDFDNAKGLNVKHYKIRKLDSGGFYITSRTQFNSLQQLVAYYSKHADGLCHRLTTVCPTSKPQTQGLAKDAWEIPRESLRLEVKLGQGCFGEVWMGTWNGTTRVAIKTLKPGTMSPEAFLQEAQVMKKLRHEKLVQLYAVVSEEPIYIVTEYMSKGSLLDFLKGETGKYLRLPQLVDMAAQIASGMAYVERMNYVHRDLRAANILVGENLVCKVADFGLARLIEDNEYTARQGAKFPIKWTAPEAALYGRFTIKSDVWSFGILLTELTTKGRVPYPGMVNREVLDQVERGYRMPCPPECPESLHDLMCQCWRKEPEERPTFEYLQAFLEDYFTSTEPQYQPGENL

As to `CN1CCN(C(=O)c2ccc(Nc3nc(N4CCC[C@@H](n5ccc6cc(C7CC7)ccc6c5=O)C4)cnc3C(N)=O)cc2)CC1` [Example A-115, 5-[(3R)-3-(6-cyclo-propyl-1-oxo-1,2-dihydroisoquinolin-2-yl)piperidin-1-yl]-3-{[4-(4-methylpiperazine-1-carbonyl)phenyl]amino}pyr-azine-2-carboxamide], the half-maximal inhibitory concentration (IC50) is 100 to 1000 nM in test [1] (setting [5]); no more than 10 nM in test [2] (Table 13, A compounds); 10 to 100 nM in test [3] (setting [5]); 100 to 1000 nM in test [4] (setting [5]).

As for `C[C@@H]1[C@H](NC(=O)c2ccc(C3CC3)c(Cl)c2)CCCN1c1cnc(C(N)=O)c(Nc2ccc(N3CCN(C)CC3)cc2)n1` [Example A-189, 5-((2R,3R)-3-(3-chloro-4-cyclopropylbenzamido)-2-methylpiperidin-1-yl)-3-(4-(4-methylpiperazin-1-yl)phenylamino)pyrazine-2-carboxamide], the IC50 in test [1] (setting [5]) was 1000 to 10000 nM; in test [2] (Table 13, A compounds), no more than 10 nM; in test [3] (setting [5]), 100 to 1000 nM; in test [4] (setting [5]) it was 100 to 1000 nM.

Consider `Cn1cc(Nc2nc(N3CCCC(C)(NC(=O)c4ccc(C5CC5)cc4)C3)cnc2C(N)=O)cn1` (centres unmarked) [Example E-150, 5-(3-(4-cyclopropylbenzamido)-3-methylpiperidin-1-yl)-3-((1-methyl-1H-pyrazol-4-yl)amino)pyrazine-2-carboxamide], for which the IC50 is greater than 10000 nM in test [1] (E compounds, Table 17); 100 to 1000 nM in test [2] (E compounds, Table 17); 100 to 1000 nM in test [3] (E compounds, Table 17); 1000 to 10000 nM in test [4] (E compounds, Table 17).

Take `C=CC(=O)N[C@@H]1CCCN(c2cnc(C(N)=O)c(Nc3cc(C)ns3)n2)[C@@H]1C` [Example E-97, 5-((2R,3R)-3-acrylamido-2-methylpiperidin-1-yl)-3-(3-methylisothiazol-5-ylamino)pyrazine-2-carboxamide]: the IC50 in test [1] (E compounds, Table 17) was 10 to 100 nM; in test [2] (E compounds, Table 17), no more than 10 nM; in test [3] (E compounds, Table 17) it was no more than 10 nM; in test [4] (E compounds, Table 17), no more than 10 nM.

As to `C[C@@H]1[C@H](NC(=O)c2ccc(C3CC3)cc2)CCCN1c1cnc(C(N)=O)c(Nc2ccc(OC3CCN(C)C3)cc2)n1` (stereo partly drawn) [Example E-136, 5-((2R,3R)-3-(4-cyclopropylbenzamido)-2-methylpiperidin-1-yl)-3-((4-((1-methylpyrrolidin-3-yl)oxy)phenyl)amino) pyrazine-2-carboxamide], the IC50 in test [1] (E compounds, Table 17) was 100 to 1000 nM; in test [2] (E compounds, Table 17), no more than 10 nM; in test [3] (E compounds, Table 17), no more than 10 nM; in test [4] (E compounds, Table 17), 10 to 100 nM.

`CC1(c2ccc(Nc3nc(N4CCC[C@@H](n5ccc6cc(C7CC7)ccc6c5=O)C4)cnc3C(N)=O)cc2)CCN(C2CCCC2)CC1` [Example A-141, 3-{[4-(1-cyclopentyl-4-methylpiperidin-4-yl)phenyl]amino}-5-[(3R)-3-(6-cyclopropyl-1-oxo-1,2-dihydroisoquinolin-2-yl)piperidin-1-yl]pyrazine-2-carboxamide]: the IC50 in test [1] (setting [5]) was 100 to 1000 nM; in test [2] (Table 13, A compounds), no more than 10 nM; in test [3] (setting [5]), no more than 10 nM; in test [4] (setting [5]), 10 to 100 nM.

Regarding `Cc1cc(Nc2nc(N3CCC[C@@H](NC(=O)N4Cc5ccccc5C4=O)C3)cnc2C(N)=O)sn1` [Example A-183, N-[(3R)-1-{5-carbamoyl-6-[(3-methyl-1,2-thiazol-5-yl)amino]pyrazin-2-yl}piperidin-3-yl]-1-oxo-2,3-dihydro-1H-isoindole-2-carboxamide], the IC50 in test [1] (setting [5]) was 100 to 1000 nM; in test [2] (Table 13, A compounds) it was no more than 10 nM; in test [3] (setting [5]), 10 to 100 nM; in test [4] (setting [5]) it was 10 to 100 nM.

As to `COCCN(C)Cc1cc(Nc2nc(N3CCC[C@@H](NC(=O)c4ccc(C5CC5)cc4)[C@H]3C)cnc2C(N)=O)sn1` [Example A-185, 5-((2R,3R)-3-(4-cyclopropylbenzamido)-2-methylpiperidin-1-yl)-3-(3-(((2-methoxyethyl)(meth-yl)amino)meth-yl)isothiazol-5-ylamino)pyr-azine-2-carboxamide], the IC50 in test [1] (setting [5]) is greater than 10000 nM; in test [2] (Table 13, A compounds), no more than 10 nM; in test [3] (setting [5]), 100 to 1000 nM; in test [4] (setting [5]) it was 10 to 100 nM.

For the molecule `C=CC(=O)N1CCC[C@@H](Nc2nnc(C(N)=O)c(Nc3ccc(C4CCN(C(=O)CC)CC4)cc3)n2)C1` [Example E-45, (R)-3-(1-acryloylpiperidin-3-ylamino)-5-(4-(1-propionylpiperidin-4-yl)phenylamino)-1,2,4-triazine-6-carboxamide], the IC50 was no more than 10 nM in test [1] (E compounds, Table 17); no more than 10 nM in test [2] (E compounds, Table 17); no more than 10 nM in test [3] (E compounds, Table 17); 10 to 100 nM in test [4] (E compounds, Table 17).

With `C=CC(=O)N[C@@H]1CCCN(c2cnc(C(N)=O)c(Nc3ccc(C4CCN(C5CC5)CC4)cc3)n2)[C@@H]1C` [Example E-93, 5-((2R,3R)-3-acrylamido-2-methylpiperidin-1-yl)-3-(4-(1-cyclopropylpiperidin-4-yl)phenylamino)pyrazine-2-carboxamide], the IC50 in test [1] (E compounds, Table 17) was 10 to 100 nM; in test [2] (E compounds, Table 17) it was no more than 10 nM; in test [3] (E compounds, Table 17), no more than 10 nM; in test [4] (E compounds, Table 17) it was no more than 10 nM.

Turning to `C[C@@H]1[C@H](NC(=O)c2ccc(C(C)(C)N3CCCC3)cc2)CCCN1c1cnc(C(N)=O)c(Nc2cnn(C)c2)n1` [Example E-143, 3-((1-methyl-1H-pyrazol-4-yl)amino)-5-((2R,3R)-2-methyl-3-(4-(2-(pyrrolidin-1-yl)propan-2-yl)benzamido)piperidin-1-yl)pyrazine-2-carboxamide], the IC50 in test [1] (E compounds, Table 17) is greater than 10000 nM; in test [2] (E compounds, Table 17), no more than 10 nM; in test [3] (E compounds, Table 17), no more than 10 nM; in test [4] (E compounds, Table 17) it was 10 to 100 nM.

In the case of `C[C@@H]1[C@H](NC(=O)c2ccc(C3CC3)cc2F)CCCN1c1cnc(C(N)=O)c(Nc2ccc(S(=O)(=O)N3CCN(C)CC3)cc2)n1` [Example A-156, 5-[(2R,3R)-3-(4-cyclopropyl-2-fluorobenzamido)-2-methylpiperidin-1-yl]-3-({4-[(4-methylpiperazin-1-yl)sulfonyl]phenyl}amino)pyr-azine-2-carboxamide], the IC50 is 1000 to 10000 nM in test [1] (setting [5]); no more than 10 nM in test [2] (Table 13, A compounds); 100 to 1000 nM in test [3] (setting [5]); 100 to 1000 nM in test [4] (setting [5]).

For the molecule `C[C@@H]1[C@H](NC(=O)c2ccc(C3CC3)cc2F)CCCN1c1cnc(C(N)=O)c(Nc2ccc(C3(C)CCN(C4CC4)CC3)cc2)n1` [Example A-174, 5-[(2R,3R)-3-(4-cyclopropyl-2-fluorobenzamido)-2-methylpiperidin-1-yl]-3-{[4-(1-cyclopropyl-4-methylpiperidin-4-yl)phenyl]amino}pyrazine-2-carboxamide], the IC50 was 100 to 1000 nM in test [1] (setting [5]); no more than 10 nM in test [2] (Table 13, A compounds); 10 to 100 nM in test [3] (setting [5]); 100 to 1000 nM in test [4] (setting [5]).

As to `CN1CCN(Cc2ccc(Nc3nc(N4CCC[C@@H](n5ccc6cc(C7CC7)ccc6c5=O)C4)cnc3C(N)=O)cc2)CC1` [Example A-111, 5-[(3R)-3-(6-cyclopropyl-1-oxo-1,2-dihydroisoquinolin-2-yl)piperidin-1-yl]-3-({4-[(4-methylpiperazin-1-yl)meth-yl]phenyl}amino)pyrazine-2-carboxamide], the IC50 in test [1] (setting [5]) was 1000 to 10000 nM; in test [2] (Table 13, A compounds), no more than 10 nM; in test [3] (setting [5]), 10 to 100 nM; in test [4] (setting [5]), 100 to 1000 nM.
